{"source": "patent US8835640B1", "about": "“Nicotine derivatives” (priority 2011, dated 2014)", "key": {"[1]": {"system": "fungal cultures (Candida albicans & Cryptococcus neoformans)", "assay": "Kirby-Bauer disc diffusion, fungi", "assay_type": "cell-based"}, "[2]": {"system": "M. tuberculosis (H37RV Strain) ATCC 25177", "assay": "Anti-TB activity, microplate Alamar Blue assay (MABA)", "assay_type": "cell-based, Mycobacterium Tuberculosis", "conditions": "for MIC: Mycobacterium tuberculosis, 120 h, read-out: MIC (minimum inhibition concentration); for MIC (minimum inhibition concentration): lowest drug concentration preventing colour change blue to pink, 37° C., five days, tested 100 to 0.2 μg/ml"}, "Corynebacterium": {"system": "Corynebacterium", "assay": "Kirby Bauer disc diffusion, Corynebacterium", "assay_type": "cell-based"}, "Streptococcus mutans": {"system": "Streptococcus mutans", "assay": "Kirby Bauer disc diffusion, Streptococcus mutans", "assay_type": "cell-based"}, "Male Wistar rats": {"system": "Male Wistar rats", "assay": "Eddy Hot Plate method", "assay_type": "in vivo", "conditions": "0.5 mg/kg and 1 mg/kg s.c., 55±0.5° C., compared to pentazocine 20 mg/kg s.c.", "description": "Male Wistar rats initially weighing 180-200 g were divided into the following groups of six animals each as follows: • Experiment-I: • 1. Group-I: Control—10% Dimethyl sulfoxide (DMSO) (0.5 ml s.c) • 2. Group-II: Standard—Pentazocine (20 mg/kg body weight, s.c.) • 3. Group-III: Compound-ARP100102 (0.5 mg/kg body weight, s.c.) • Experiment-II: • Same as Experiment I except Group III dosage was 1 mg/kg body weight. • The hot plate method was originally developed by Woolfe and MacDonald (1944). The paws of rat are very sensitive to heat at temperatures which are not damaging to the skin. The response is in the form of jumping, withdrawal of paws or licking of the paws (Eddy and Leimback, 1953). The animals were placed on Eddy's hot plate at a temperature of 55±0.5° C. […] Reaction time and the type of response were noted using a stopwatch. The latency was recorded before and after 30, 60, 90 and 120 minutes following s.c. injection of test compounds (0.5 mg and 1 mg·kg), standard drug (pentazocine) and control vehicle respectively. The dose selection of the test compounds was based on the literature of nicotine (0.32-1.6 mg/kg s.c.). Average reaction time was then calculated and the percentage variation calculated using the following ratio: Percentage protection=Drug latency−Baseline latency×100Baseline latency"}, "[3]": {"system": "Gram positive bacteria (Staphylococcus aureus, Enterococcus faecalis), Gram negative bacteria (E. Coli and Pseudomonas aeruginosa)", "assay": "Kirby-Bauer disc diffusion, bacteria", "assay_type": "cell-based"}, "Male Albino Mice": {"system": "Male Albino Mice", "assay": "Acetic Acid-Induced Writhing Response test", "assay_type": "in vivo", "description": "Group-I: Control-Normal saline (0.1 ml i.p./10 gm) • 2. Group-II: Diclofenac (10 mg/kg body weight, i.p.) • 3. Group-V: Compound-ARP100120 (3 mg/kg body weight, i.p.) • The number of writhes (abdominal muscular contractions), stretching of the hind limbs and trunk twisting were counted 5 minutes after the injection of 1% acetic acid (v/v, 0.1 mL/10 g body weight, i.p.). The data collected represented the total number of writhes observed in duration of 10 minutes (5-15 minutes after the injection). Percentage inhibition was then calculated. Percentage inhibition ═(N−N^t/N)×100, where N is the average number of writhing of control group and N^t is the average number of writhing of test group. • Results are as follows: […]"}}}
{"smiles": "CC(=O)c1ccc(-c2cncc(C(=O)C3CCN(C)C3=O)c2)s1", "note": "(stereo not shown) [ARP100101, 3-(5-(5-acetylthiophen-2-yl)nicotinoyl)-1-methylpyrrolidin-2-one]", "values": [{"measurement": "antifungal activity (zone of inhibition, disc diffusion)", "setting": "[1]; 50 μg", "value": "exhibit antifungal activity"}, {"measurement": "antifungal activity (zone of inhibition, disc diffusion)", "setting": "[1]; 100 μg", "value": "exhibit antifungal activity"}]}
{"smiles": "CN1CCC(C(=O)c2cncc(-c3ccc(F)cc3)c2)C1=O", "note": "(stereo not shown) [ARP100102, 3-(5-(4-fluorophenyl)nicotinoyl)-1-methylpyrrolidin-2-one]", "values": [{"measurement": "antifungal activity (zone of inhibition, disc diffusion)", "setting": "[1]; 5 μg", "value": "exhibit antifungal activity"}, {"measurement": "antifungal activity (zone of inhibition, disc diffusion)", "setting": "[1]; 25 μg", "value": "exhibit antifungal activity"}, {"measurement": "antifungal activity (zone of inhibition, disc diffusion)", "setting": "[1]; 50 μg", "value": "exhibit antifungal activity"}, {"measurement": "antifungal activity (zone of inhibition, disc diffusion)", "setting": "[1]; 100 μg", "value": "exhibit antifungal activity"}, {"measurement": "MIC", "setting": "[2]", "value": "≤ 0.05", "unit": "µg/mL"}, {"measurement": "antibacterial activity against Corynebacterium (inhibition zone)", "setting": "Corynebacterium; 50 μg", "value": "good antibacterial activity"}, {"measurement": "antibacterial activity against Corynebacterium (inhibition zone)", "setting": "Corynebacterium; 100 μg", "value": "good antibacterial activity"}, {"measurement": "antibacterial activity against Streptococcus mutans (inhibition zone)", "setting": "Streptococcus mutans; 50 μg", "value": "good antibacterial activity"}, {"measurement": "antibacterial activity against Streptococcus mutans (inhibition zone)", "setting": "Streptococcus mutans; 100 μg", "value": "good antibacterial activity"}, {"measurement": "analgesic activity (reaction time in hot plate test)", "setting": "Male Wistar rats", "value": "demonstrate analgesic activity"}]}
{"smiles": "Cc1cccc(-c2cncc(C(=O)C3CCN(C)C3=O)c2)c1", "note": "(stereo not shown) [ARP100104, 1-methyl-3-(5-m-tolylnicotinoyl)pyrrolidin-2-one]", "values": [{"measurement": "antifungal activity (zone of inhibition, disc diffusion)", "setting": "[1]; 100 μg", "value": "exhibit antifungal activity"}]}
{"smiles": "CN1CCC(C(=O)c2cncc(-c3ccc(Cl)cc3)c2)C1=O", "note": "(stereo not shown) [ARP100105, 3-(5-(4-chlorophenyl)nicotinoyl)-1-methylpyrrolidin-2-one]", "values": [{"measurement": "antifungal activity (zone of inhibition, disc diffusion)", "setting": "[1]; 50 μg", "value": "both antibacterial and antifungal activity"}, {"measurement": "antifungal activity (zone of inhibition, disc diffusion)", "setting": "[1]; 100 μg", "value": "both antibacterial and antifungal activity"}, {"measurement": "antibacterial activity (zone of inhibition, disc diffusion)", "setting": "[3]; 50 μg", "value": "both antibacterial and antifungal activity"}, {"measurement": "antibacterial activity (zone of inhibition, disc diffusion)", "setting": "[3]; 100 μg", "value": "both antibacterial and antifungal activity"}]}
{"smiles": "CN1CCC(C(=O)c2cncc(-c3ccc(C=O)cc3)c2)C1=O", "note": "(stereo not shown) [ARP100106, 4-(5-(1-methyl-2-oxopyrrolidine-3-carbonyl)pyridin-3-yl)benzaldehyde]", "values": [{"measurement": "antifungal activity (zone of inhibition, disc diffusion)", "setting": "[1]; 100 μg", "value": "both antibacterial and antifungal activity"}, {"measurement": "antibacterial activity (zone of inhibition, disc diffusion)", "setting": "[3]; 100 μg", "value": "both antibacterial and antifungal activity"}]}
{"smiles": "COc1ccc(-c2cncc(C(=O)C3CCN(C)C3=O)c2)cc1", "note": "(stereo not shown) [ARP100108, 3-(5-(4-methoxyphenyl)nicotinoyl)-1-methylpyrrolidin-2-one]", "values": [{"measurement": "antifungal activity (zone of inhibition, disc diffusion)", "setting": "[1]; 100 μg", "value": "exhibit antifungal activity"}]}
{"smiles": "CN1CCC(C(=O)c2cncc(-c3cccc(F)c3)c2)C1=O", "note": "(stereo not shown) [ARP100111, 3-(5-(3-fluorophenyl)nicotinoyl)-1-methylpyrrolidin-2-one]", "values": [{"measurement": "antibacterial activity on both gram positive and gram negative bacteria", "setting": "[3]; 100 μg", "value": "showed antibacterial activity"}]}
{"smiles": "CN1CCC(C(=O)c2cncc(-c3ccc4ccccc4c3)c2)C1=O", "note": "(stereo not shown) [ARP100119, 1-methyl-3-(5-(naphthalen-2-yl)nicotinoyl)pyrrolidin-2-one]", "values": [{"measurement": "antifungal activity (zone of inhibition, disc diffusion)", "setting": "[1]; 50 μg", "value": "exhibit antifungal activity"}, {"measurement": "antifungal activity (zone of inhibition, disc diffusion)", "setting": "[1]; 100 μg", "value": "exhibit antifungal activity"}]}
{"smiles": "CC(=O)Oc1ccc(-c2cncc(C(=O)C3CCN(C)C3=O)c2)cc1", "note": "(stereo not shown) [ARP100120, 4-(5-(1-methyl-2-oxopyrrolidine-3-carbonyl)pyridin-3-yl)phenyl acetate]", "values": [{"measurement": "antifungal activity (zone of inhibition, disc diffusion)", "setting": "[1]; 100 μg", "value": "exhibit antifungal activity"}, {"measurement": "analgesic activity (writhing test)", "setting": "Male Albino Mice; 3 mg/kg i.p.", "value": "demonstrate analgesic activity"}]}
{"smiles": "CN1CCC(C(=O)c2cncc(-c3cccc(C=O)c3)c2)C1=O", "note": "(stereo not shown) [ARP100121, 3-(5-(1-methyl-2-oxopyrrolidine-3-carbonyl)pyridin-3-yl)benzaldehyde]", "values": [{"measurement": "antifungal activity (zone of inhibition, disc diffusion)", "setting": "[1]; 50 μg", "value": "exhibit antifungal activity"}, {"measurement": "antifungal activity (zone of inhibition, disc diffusion)", "setting": "[1]; 100 μg", "value": "exhibit antifungal activity"}]}
{"smiles": "CCCCc1cncc(C(=O)C2CCN(C)C2=O)c1", "note": "(stereo not shown) [ARP100122, 3-(5-butylnicotinoyl)-1-methylpyrrolidin-2-one]", "values": [{"measurement": "antifungal activity (zone of inhibition, disc diffusion)", "setting": "[1]; 100 μg", "value": "exhibit antifungal activity"}]}
{"smiles": "O=C(O)c1cn(C2CC2)c2cc(N3CCNCC3)c(F)cc2c1=O", "note": "[Ciprofolxacin]", "values": [{"measurement": "MIC (minimum inhibition concentration)", "setting": "[2]", "value": 3.125, "unit": "µg/mL"}]}
{"smiles": "O=C(O)Cc1ccccc1Nc1c(Cl)cccc1Cl", "note": "[Diclofenac, reference compound]", "values": [{"measurement": "Number of Writhing", "setting": "Male Albino Mice; 5-15 minutes after 1% acetic acid i.p., Diclofenac 10 mg/kg i.p., ARP100120 3 mg/kg i.p.", "value": "34.50 ± 1.586"}, {"measurement": "Percentage Inhibition (writhing)", "setting": "Male Albino Mice; versus control, Diclofenac 10 mg/kg i.p., ARP100120 3 mg/kg i.p.", "value": 26.86, "unit": "%"}]}
{"smiles": "CN1CCCC1c1cccnc1", "note": "(stereo not shown) [Nicotine]", "values": [{"measurement": "antibacterial activity (disc diffusion)", "setting": "[3]; 1000 μg/ml", "value": "did not show any antibacterial activity"}]}
{"smiles": "NC(=O)c1cnccn1", "note": "[Pyrazinamide]", "values": [{"measurement": "MIC", "setting": "[2]", "value": 3.12, "unit": "µg/mL"}]}
{"smiles": "CN[C@@H]1[C@H](O[C@H]2[C@H](O[C@H]3[C@H](O)[C@@H](O)[C@H](N=C(N)N)[C@@H](O)[C@@H]3N=C(N)N)O[C@@H](C)[C@]2(O)C=O)O[C@@H](CO)[C@H](O)[C@H]1O", "note": "[Steptomycin]", "values": [{"measurement": "MIC (minimum inhibition concentration)", "setting": "[2]", "value": 6.25, "unit": "µg/mL"}]}
